Where two headings read alike, the source gives them in different places. *1 amine or outer side, *2 acyl side, *3 side chain or, on linkers, in order; H or OH if unused. Where a SMILES comes first, the peptide text is derived from it. Side-chain parts run from the residue outwards. [ ]: non-standard residue; d: D form. The star is where a group is joined. Decanoyl(10-(4-HOOC-PhO)) = O=C(O)c1ccc(OCCCCCCCCCC(=O)*)cc1; αMePhe(2-F) = C[C@](N)(Cc1ccccc1F)C(=O)O; γGlu = O=C(O)[C@H](CCC(=O)[*:2])N[*:1]; αMeY = C[C@](N)(Cc1ccc(O)cc1)C(=O)O; αMeL = CC(C)C[C@](C)(N)C(=O)O; Orn = NCCC[C@H](N)C(=O)O; AEEA = NCCOCCOCC(=O)O; Aib = CC(C)(N)C(=O)O
Legend:
Assay type in all cases: cell-based
hGIPR = target: T1, hGIPR (Homo sapiens, UniProt P48546); experiment: Functional cAMP formation (HTRF) in HEK-293 clonal cells expressing hGIPR, 0.1% bovine casein, without or with 1.0% human serum albumin; conditions: for Emax: percent of maximal response to GIP(1-42)NH2; for EC50: geometric mean
T1 construct: expressed in transfected cells
T1 sequence (P48546 22-466): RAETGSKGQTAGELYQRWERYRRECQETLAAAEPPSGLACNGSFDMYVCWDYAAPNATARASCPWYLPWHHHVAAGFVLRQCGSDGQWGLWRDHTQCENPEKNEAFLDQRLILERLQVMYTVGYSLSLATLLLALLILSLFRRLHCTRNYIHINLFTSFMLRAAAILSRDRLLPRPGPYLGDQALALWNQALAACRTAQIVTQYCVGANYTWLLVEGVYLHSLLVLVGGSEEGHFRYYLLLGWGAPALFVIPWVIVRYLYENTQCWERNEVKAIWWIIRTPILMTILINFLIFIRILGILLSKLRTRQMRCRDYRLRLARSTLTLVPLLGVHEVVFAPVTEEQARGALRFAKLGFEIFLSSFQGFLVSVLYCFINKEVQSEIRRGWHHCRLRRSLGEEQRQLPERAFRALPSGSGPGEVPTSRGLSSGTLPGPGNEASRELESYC
Summary of the method: (§1)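 Cells were stimulated with peptide for 30 min at 37° C, then intracellular cAMP was measured by competitive HTRF (665/620 nm ratio) and converted to nM using a cAMP standard curve. Relative EC50 and Emax came from four-parameter logistic fits of percent maximal response against peptide concentration.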

hGCGR = target: T2, hGCGR (Homo sapiens, UniProt P47871); experiment: Functional cAMP formation (HTRF) in HEK-293 clonal cells expressing hGCGR, 0.1% bovine casein, without or with 1.0% human serum albumin; conditions: 37° C., geometric mean
T2 construct: expressed in transfected cells
Summary of the method: as §1

hGLP-1R = hGLP-1R (Homo sapiens, UniProt P43220); experiment: Functional cAMP formation (HTRF) in HEK-293 clonal cells expressing hGLP-1R, 0.1% bovine casein, without or with 1.0% human serum albumin; set-up: expressed in transfected cells; conditions: for EC50: 37° C., geometric mean; for Emax: percent of maximal response to GLP-1(7-36)NH2
Summary of the method: as §1

T2 sequence (P47871 26-477): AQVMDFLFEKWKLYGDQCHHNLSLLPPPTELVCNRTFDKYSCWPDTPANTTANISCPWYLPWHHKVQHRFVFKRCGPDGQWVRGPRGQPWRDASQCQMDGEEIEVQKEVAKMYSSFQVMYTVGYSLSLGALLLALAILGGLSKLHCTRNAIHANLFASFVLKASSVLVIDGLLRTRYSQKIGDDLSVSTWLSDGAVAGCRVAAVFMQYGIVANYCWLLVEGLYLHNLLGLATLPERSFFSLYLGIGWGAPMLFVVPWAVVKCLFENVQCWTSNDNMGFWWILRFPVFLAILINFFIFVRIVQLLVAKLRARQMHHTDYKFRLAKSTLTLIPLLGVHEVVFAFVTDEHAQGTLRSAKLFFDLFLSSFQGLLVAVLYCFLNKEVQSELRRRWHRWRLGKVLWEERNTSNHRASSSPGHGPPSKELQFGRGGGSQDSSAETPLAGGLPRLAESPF
Sequence of hGLP-1R (P43220 24-463): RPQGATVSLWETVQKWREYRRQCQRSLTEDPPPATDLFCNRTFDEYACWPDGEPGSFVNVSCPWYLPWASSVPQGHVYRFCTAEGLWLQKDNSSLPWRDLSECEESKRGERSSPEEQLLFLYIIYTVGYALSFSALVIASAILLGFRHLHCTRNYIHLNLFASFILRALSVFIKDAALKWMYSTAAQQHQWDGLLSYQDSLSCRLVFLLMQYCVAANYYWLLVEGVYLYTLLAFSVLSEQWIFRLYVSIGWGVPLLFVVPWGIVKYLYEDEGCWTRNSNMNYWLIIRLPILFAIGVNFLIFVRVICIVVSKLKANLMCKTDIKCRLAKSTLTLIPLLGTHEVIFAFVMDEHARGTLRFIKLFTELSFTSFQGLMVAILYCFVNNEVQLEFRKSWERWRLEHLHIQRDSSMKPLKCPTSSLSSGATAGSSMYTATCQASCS

SMILES	Emax (hGIPR; HEK293, 0.1% bovine casein and 1.0% human serum albumin, 37° C., read-out: hGIPR Emax, % ± SEM)	EC50 (hGIPR; cAMP, 37° C., 0.1% bovine casein (no human serum albumin), read-out: hGIPR EC50, nM (SEM, n))	EC50 (hGCGR; 0.1% bovine casein and 1.0% human serum albumin, read-out: hGCGR EC50, nM (SEM, n))	EC50 (hGCGR; cAMP, 0.1% bovine casein (no human serum albumin), read-out: hGCGR EC50, nM (SEM, n))	EC50 (hGLP-1R; 0.1% bovine casein and 1.0% human serum albumin, read-out: hGLP-1R EC50, nM (SEM, n))	EC50 (hGLP-1R; cAMP, 0.1% bovine casein (no human serum albumin), read-out: hGLP-1R EC50, nM (SEM, n))	Emax (hGIPR; HEK293, read-out: hGIPR Emax, % ± SEM, 0.1% bovine casein and 1.0% human serum albumin, 37° C.)	Emax (hGIPR; HEK293, read-out: hGIPR Emax, % ± SEM, cAMP, 37° C., 0.1% bovine casein, arithmetic mean)	EC50 (hGIPR; hGIPR EC50, nM (SEM, n), 0.1% bovine casein and 1.0% human serum albumin, 37° C.)	EC50 (hGCGR; hGCGR EC50, nM (SEM, n), 0.1% bovine casein and 1.0% human serum albumin)	EC50 (hGCGR; hGCGR EC50, nM (SEM, n), cAMP, 0.1% bovine casein (no human serum albumin))	Emax (hGLP-1R; HEK293, read-out: hGLP-1R Emax, % ± SEM, 0.1% bovine casein and 1.0% human serum albumin, 37° C.)	Emax (hGLP-1R; HEK293, read-out: hGLP-1R Emax, % ± SEM, cAMP, 37° C., 0.1% bovine casein, arithmetic mean)	EC50 (hGLP-1R; hGLP-1R EC50, nM (SEM, n), 0.1% bovine casein and 1.0% human serum albumin)
CC[C@H](C)[C@H](NC(=O)[C@H](CC(C)C)NC(=O)[C@](C)(Cc1ccc(O)cc1)NC(=O)[C@@H](CCC(=O)O)NC(=O)[C@@H](NC(=O)[C@H](Cc1ccccc1)NC(=O)[C@H](CCCCNC(=O)COCCOCCNC(=O)COCCOCCNC(=O)CC[C@H](NC(=O)CCCCCCCCCCCCC(=O)O)C(=O)O)NC(=O)C(C)(C)NC(=O)[C@H](CCC(N)=O)NC(=O)[C@H](C)NC(=O)[C@H](CCCCNC(=O)COCCOCCNC(=O)COCCOCCNC(=O)CC[C@H](NC(=O)CCCCCCCCCCCCC(=O)O)C(=O)O)NC(=O)[C@H](CCCN)NC(=O)[C@H](CC(=O)O)NC(=O)[C@H](CC(C)C)NC(=O)[C@](C)(CC(C)C)NC(=O)[C@@H](NC(=O)[C@H](CO)NC(=O)[C@H](Cc1ccc2ccccc2c1)NC(=O)[C@H](CC(=O)O)NC(=O)[C@H](CO)NC(=O)[C@@H](NC(=O)[C@](C)(Cc1ccccc1F)NC(=O)[C@@H](NC(=O)CNC(=O)[C@H](CCC(=O)O)NC(=O)C(C)(C)NC(=O)[C@@H](N)Cc1ccc(O)cc1)[C@@H](C)O)[C@@H](C)O)[C@@H](C)CC)[C@@H](C)CC)C(=O)N[C@@H](CCC(=O)O)C(=O)NCC(=O)NCC(=O)N1CCC[C@H]1C(=O)N[C@@H](CO)C(=O)N[C@@H](CO)C(=O)NCC(=O)N[C@@H](C)C(=O)N1CCC[C@H]1C(=O)N1CCC[C@H]1C(=O)N1CCC[C@H]1C(=O)N[C@@H](CO)C(N)=O [Example 249]	88.9%	0.0201 nM	> 9950 nM	> 9950 nM	51.6 nM	0.3 nM								
CC[C@H](C)[C@H](NC(=O)[C@H](CC(C)C)NC(=O)[C@](C)(Cc1ccc(O)cc1)NC(=O)[C@@H](CCC(=O)O)NC(=O)[C@@H](NC(=O)[C@H](Cc1ccccc1)NC(=O)[C@H](CCC(=O)O)NC(=O)C(C)(C)NC(=O)[C@H](CCC(N)=O)NC(=O)[C@H](C)NC(=O)[C@H](CCCCNC(=O)COCCOCCNC(=O)COCCOCCNC(=O)CC[C@H](NC(=O)CCCCCCCCCOc1ccc(C(=O)O)cc1)C(=O)O)NC(=O)[C@H](CCCN)NC(=O)[C@H](CC(=O)O)NC(=O)[C@H](CC(C)C)NC(=O)[C@](C)(CC(C)C)NC(=O)[C@@H](NC(=O)[C@H](CO)NC(=O)[C@H](Cc1ccc(OC)cc1)NC(=O)[C@H](CC(=O)O)NC(=O)[C@H](CO)NC(=O)[C@@H](NC(=O)[C@](C)(Cc1ccccc1F)NC(=O)[C@@H](NC(=O)CNC(=O)[C@H](CCC(=O)O)NC(=O)C(C)(C)NC(=O)[C@@H](N)Cc1ccc(O)cc1)[C@@H](C)O)[C@@H](C)O)[C@@H](C)CC)[C@@H](C)CC)C(=O)N[C@@H](CCCCNC(=O)COCCOCCNC(=O)COCCOCCNC(=O)CC[C@H](NC(=O)CCCCCCCCCOc1ccc(C(=O)O)cc1)C(=O)O)C(=O)NCC(=O)NCC(=O)N1CCC[C@H]1C(=O)N[C@@H](CO)C(=O)N[C@@H](CO)C(=O)NCC(=O)N[C@@H](C)C(=O)N1CCC[C@H]1C(=O)N1CCC[C@H]1C(=O)N1CCC[C@H]1C(=O)N[C@@H](CO)C(N)=O [Example 278] (H-Y[Aib]EGT[αMePhe(2-F)]TSDY(Me)SI[αMeL]LD[Orn]K([AEEA-AEEA-γGlu-Decanoyl(10-(4-HOOC-PhO))])AQ[Aib]EFI[dE][αMeY]LIK([AEEA-AEEA-γGlu-Decanoyl(10-(4-HOOC-PhO))])GGPSSGAPPPS-NH2)							91.1%	105%	1.41 nM	> 9950 nM	> 9950 nM	121%	109%	27 nM

Source: patent publication US20230265151A1, “GIP/GLP1 CO-AGONIST COMPOUNDS” (priority 2020, published 2023)
